{"source": "patent US20100135983A1", "about": "“Anti-inflammatory compositions and methods” (Searete LLC, a limited liability corporation of the State …, priority 2008, published 2010)", "origin": "cited, not measured here", "key": {"Epha1": {"tested_on": "Epha1", "details": "at nanomolar concentrations"}, "[1]": {"tested_on": "Src family kinases (Src, Lck, Yes, Fyn)", "details": "at nanomolar concentrations"}, "proteasome": {"tested_on": "proteasome", "details": "cultured breast cancer cells; disulfiram bound to copper"}, "Src family kinase": {"tested_on": "Src family kinase", "details": "also its dependent cellular responses"}, "lethal septic shock": {"tested_on": "lethal septic shock", "details": "mice"}, "[2]": {"details": "single agent, infused at 400 mg over one hour"}}}
{"smiles": "Cc1nc(Nc2ncc(C(=O)Nc3c(C)cccc3Cl)s2)cc(N2CCN(CCO)CC2)n1.O", "note": "[dasatinib, N-(2-chloro-6-methylphenyl)-2-[[6-[4-(2-hydroxyethyl)-1-piperazinyl]-2-methyl-4-pyrimidinyl]amino]-5-thiazolecarboxamide, monohydrate]", "values": [{"measurement": "inhibition of Epha1", "setting": "Epha1", "result": "inhibits"}, {"measurement": "inhibition of Src family kinases (Src, Lck, Yes, Fyn)", "setting": "[1]", "result": "inhibits"}]}
{"smiles": "CCN(CC)C(=S)SSC(=S)N(CC)CC", "note": "[disulfiram, 1-(diethylthiocarbamoyldisulfanyl)-N,N-diethyl-methanethioamide]", "values": [{"measurement": "proteasomal activity", "setting": "proteasome", "result": "inhibits proteasomal activity"}]}
{"smiles": "CCN(CC)CCCC(C)Nc1ccnc2cc(Cl)ccc12", "note": "(stereo not drawn) [Chloroquine]", "values": [{"measurement": "inhibition of CpG-induced Src family kinase activation", "setting": "Src family kinase", "result": "does not inhibit"}]}
{"smiles": "Cl.Cl.Nc1ccccc1Oc1ccc2c(N)nsc2c1", "note": "[Example M62812, 3-amino-6-(2-aminophenoxy)-1,2-benzisothiazole dihydrochloride]", "values": [{"measurement": "prevention of lethal septic shock", "setting": "lethal septic shock", "result": "prevents lethal septic shock"}]}
{"smiles": "CCN(CC)CCCC(C)Nc1ccnc2cc(Cl)ccc12.O=P(O)(O)O.O=P(O)(O)O", "note": "(stereo not drawn) [chloroquine phosphate, 7-chloro-4-[[4-(diethylamino)-1-methylbutyl]amino]quinoline phosphate (1:2)]", "values": [{"measurement": "tolerability of intravenous infusion", "setting": "[2]", "result": "without complication"}]}
